From PMC10629533, “Structures and membrane interactions of native serotonin transporter in complexes with psychostimulants” (Proceedings of the National Academy of Sciences of the …, 2023)

Target: T1, porcine serotonin transporter (pSERT) (Sus scrofa, UniProt F1RN70)
T1 construct: gene SLC6A4; native full-length pSERT from porcine brain; model residues 116-654; with 15B8 Fab
Assay: cryo-EM structure ([…] Å); [3H]paroxetine competition SPA with purified native pSERT
Type: binding

T1 sequence (F1RN70 38-667): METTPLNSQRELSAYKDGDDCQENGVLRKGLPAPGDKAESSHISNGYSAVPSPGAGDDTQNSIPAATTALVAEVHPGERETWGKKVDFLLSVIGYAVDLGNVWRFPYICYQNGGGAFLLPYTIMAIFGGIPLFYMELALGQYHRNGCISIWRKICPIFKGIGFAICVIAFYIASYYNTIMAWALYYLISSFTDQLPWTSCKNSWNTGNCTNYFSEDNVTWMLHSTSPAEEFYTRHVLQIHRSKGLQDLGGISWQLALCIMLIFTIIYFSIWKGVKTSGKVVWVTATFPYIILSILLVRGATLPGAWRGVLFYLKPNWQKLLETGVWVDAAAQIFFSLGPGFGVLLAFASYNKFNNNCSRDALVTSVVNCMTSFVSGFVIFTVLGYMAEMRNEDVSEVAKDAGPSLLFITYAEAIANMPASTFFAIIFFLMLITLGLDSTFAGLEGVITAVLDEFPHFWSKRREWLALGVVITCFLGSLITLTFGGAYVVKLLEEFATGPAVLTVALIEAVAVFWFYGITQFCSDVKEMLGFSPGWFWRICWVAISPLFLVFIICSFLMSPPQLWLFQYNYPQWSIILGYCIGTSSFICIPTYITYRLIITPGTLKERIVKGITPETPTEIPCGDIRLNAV

## CN[C@@H](C)Cc1ccccc1 [(+)-methamphetamine]
  Ki: 199 ± 103 µM
